Experiments:
hiPSC = test: weekend-free media change / passaging schedule growth; assay type: cell-based, human; conditions: various doses, FIG. 8E
Protocol: FIG. 8A-H. Optimization of Weekend-Free Passaging Schedule that is Still Compatible with Monolayer Differentiation. (A) Establishment of an optimal 4-day media change schedule. (B) 7 day passage with media change schedule. (C) 7 day passage only schedule. (D) Comparison of growth when using two 7-day weekend-free passaging schedules with or without addition of 0.5 mg ml−1 albumin (n=2). (E) Comparison the addition of varying levels of albumin (mg ml−1) to a 7-day passage and media change schedule (n=4). (F) Cardiac differentiation efficiency when using 7-day passage and media change schedule (n=5). (G) Endothelial differentiation efficiency when using 7-day passage and media change schedule (n=6). (H) […]
With the understanding that B8 supports hiPSC growth across a variety of sub-optimal conditions (FIG. 7D), we established the suitability of this formula to skip days of media change. […] With the knowledge of the influence of various media change-skipping timelines, we devised a 7-day schedule consisting of passaging cells every 3.5 days that would allow for the skipping of media changes on the weekends, a major caveat of current hiPSC culture protocols (FIGS. 8B and 8C). […]

phospho-ERK = test: stimulation of phospho-ERK in FGF2-starved hiPSC by media stored at 37° C. (Western blot); assay type: cell-based, human; conditions: FIG. 7E
Protocol: FIG. 7A-E. Qualification of B8 as Suitable for hiPSC Generation and Culture. […] (B) Expression of pluripotent markers in a variety of B8-derived hiPSC lines. (C) Example G-banding karyotype analysis of four hiPSC lines derived in B8 from blood. (D) hiPSC growth at low seeding densities in B8 compared to E8 (n=8). (E) Assessment of stimulation of phospho-ERK after media had been stored at 37° C. for 2 or 7 days, comparing in-house generated FGF2-G3 to a commercial FGF2 (Peprotech). hiPSC were starved of FGF2 for 24 h then treated with the indicated media for 1 h before collection for Western blot. Total ERK was used as a loading control.
Stock lysis buffer was prepared as 150 mM NaCl, 20 mM Tris pH 7.5, 1 mM EDTA, 1 mM EGTA, and 1% Triton X-100 and stored at 4° C. Fresh complete lysis buffer was prepared with final concentration of 1× Protease Inhibitor (Roche, 5892791001), 1× Phosphatase Inhibitor Cocktail 2 (P5726, Sigma), 1× Phosphatase Inhibitor Cocktail 3 (Sigma, P0044), 2 mM PMSF (Sigma, P7626), and 1% SDS Solution (Fisher Scientific, BP2436200). hiPSC were starved using B8 without FGF2 for 24 hours, then treated with media containing the corresponding FGF2 for 1 h. Media was then removed, and cells were washed once with DPBS, harvested with 0.5 mM EDTA in DPBS, and transferred into tubes. Samples were pelleted by centrifugation at 500×g for 3 minutes and the supernatant was discarded. The pellet was resuspend in 150 μl complete lysis buffer and incubated on ice for 30 min. Clear lysates were collected by centrifugation at 10,000×g for 10 min at 4° C. The protein concentration was measured with Qubit Protein Assay Kit (Invitrogen, Q33211) and Qubit 4 fluorometer. Lysates was stored in −80° C. before use. 10 μg of sample was prepared with NuPAGE™ LDS Sample Buffer (Invitrogen, B0007) and NuPAGE™ Reducing Agent (Invitrogen, B0009) according to the manufacturer's instructions and run on NuPAGE™ 10% Bis-Tris Gel (Invitrogen, NP0302BOX) and Mini Gel Tank system (Invitrogen, A25977) with Bolt MES SDS Running Buffer (Invitrogen, B000202) at 100 V for 1 h. […]

- effect of component on stability of FGF2-G3 (phospho-ERK): improved the stability of FGF2-G3
Substance: heparin
- additive effect in B8 (hiPSC): do not have an additive effect
